In ChEMBL document CHEMBL5724914, “Linking interpersonal differences in gut microbiota composition and drug biotransformation activity” (2024):

Settings: human gut metagenome, 24 h, 2 µM
Further: call rule not given here.

Row | Structure (SMILES) | Bacterial Biotransformation
1 | C[C@@H]1C[C@H]2[C@@H]3CCC4=CC(=O)C=C[C@]4(C)[C@@]3(F)[C@@H](O)C[C@]2(C)[C@@]1(O)C(=O)CO [DEXAMETHASONE] | Compound NOT metabolized
2 | CC(C)N(CCC(C(N)=O)(c1ccccc1)c1ccccn1)C(C)C.O=P(O)(O)O (stereo not given) [DISOPYRAMIDE PHOSPHATE] | Compound NOT metabolized

Settings: human gut metagenome, 24 h, 2 µM
Remark: another data set of the same source

Row | Structure (SMILES) | Bacterial Biotransformation
3 | C[C@@H]1C[C@H]2[C@@H]3CCC4=CC(=O)C=C[C@]4(C)[C@@]3(F)[C@@H](O)C[C@]2(C)[C@@]1(O)C(=O)CO [DEXAMETHASONE] | Compound NOT metabolized
4 | CC(C)N(CCC(C(N)=O)(c1ccccc1)c1ccccn1)C(C)C.O=P(O)(O)O (stereo not given) [DISOPYRAMIDE PHOSPHATE] | Compound NOT metabolized

Assay: The drug is tested on Z-008 corresponding to metagenome with ENA study accession number: PRJEB37062 and ENA sample accession number: ERS12561808 for biotransformation under anaerobic condition. The drug concentrations were measured over 9 timepoints collected between 0 and 24 hours of incubation by liquid-chromatography-coupled mass spectrometry (LC–MS)
Settings: 2 µM

Row | Structure (SMILES) | Bacterial Biotransformation
5 | C[C@@H]1C[C@H]2[C@@H]3CCC4=CC(=O)C=C[C@]4(C)[C@@]3(F)[C@@H](O)C[C@]2(C)[C@@]1(O)C(=O)CO [DEXAMETHASONE] | Compound NOT metabolized
6 | CC(C)N(CCC(C(N)=O)(c1ccccc1)c1ccccn1)C(C)C.O=P(O)(O)O (stereo not given) [DISOPYRAMIDE PHOSPHATE] | Compound NOT metabolized

Settings: human gut metagenome, 24 h, 2 µM
Remark: another data set of the same source

Row | Structure (SMILES) | Bacterial Biotransformation
7 | C[C@@H]1C[C@H]2[C@@H]3CCC4=CC(=O)C=C[C@]4(C)[C@@]3(F)[C@@H](O)C[C@]2(C)[C@@]1(O)C(=O)CO [DEXAMETHASONE] | Compound NOT metabolized
8 | CC(C)N(CCC(C(N)=O)(c1ccccc1)c1ccccn1)C(C)C.O=P(O)(O)O (stereo not given) [DISOPYRAMIDE PHOSPHATE] | Compound NOT metabolized

Settings: human gut metagenome, 24 h, 2 µM
Remark: another data set of the same source

Row | Structure (SMILES) | Bacterial Biotransformation
9 | C[C@@H]1C[C@H]2[C@@H]3CCC4=CC(=O)C=C[C@]4(C)[C@@]3(F)[C@@H](O)C[C@]2(C)[C@@]1(O)C(=O)CO [DEXAMETHASONE] | Compound NOT metabolized
10 | CC(C)N(CCC(C(N)=O)(c1ccccc1)c1ccccn1)C(C)C.O=P(O)(O)O (stereo not given) [DISOPYRAMIDE PHOSPHATE] | Compound NOT metabolized

Assay: (§1) The drug is tested on Z-014 corresponding to rat gut metagenome with ENA study accession number: PRJEB37062 and ENA sample accession number: ERS12561814 for biotransformation under anaerobic condition. The drug concentrations were measured over 9 timepoints collected between 0 and 24 hours of incubation by liquid-chromatography-coupled mass spectrometry (LC–MS)
Settings: 2 µM

Row | Structure (SMILES) | Bacterial Biotransformation
11 | C[C@@H]1C[C@H]2[C@@H]3CCC4=CC(=O)C=C[C@]4(C)[C@@]3(F)[C@@H](O)C[C@]2(C)[C@@]1(O)C(=O)CO [DEXAMETHASONE] | Compound NOT metabolized
12 | CC(C)N(CCC(C(N)=O)(c1ccccc1)c1ccccn1)C(C)C.O=P(O)(O)O (stereo not given) [DISOPYRAMIDE PHOSPHATE] | Compound NOT metabolized

Settings: human gut metagenome, 24 h, 2 µM
Remark: another data set of the same source

Row | Structure (SMILES) | Bacterial Biotransformation
13 | C[C@@H]1C[C@H]2[C@@H]3CCC4=CC(=O)C=C[C@]4(C)[C@@]3(F)[C@@H](O)C[C@]2(C)[C@@]1(O)C(=O)CO [DEXAMETHASONE] | Compound NOT metabolized
14 | CC(C)N(CCC(C(N)=O)(c1ccccc1)c1ccccn1)C(C)C.O=P(O)(O)O (stereo not given) [DISOPYRAMIDE PHOSPHATE] | Compound metabolized

Settings: human gut metagenome, 24 h, 2 µM
Remark: another data set of the same source

Row | Structure (SMILES) | Bacterial Biotransformation
15 | C[C@@H]1C[C@H]2[C@@H]3CCC4=CC(=O)C=C[C@]4(C)[C@@]3(F)[C@@H](O)C[C@]2(C)[C@@]1(O)C(=O)CO [DEXAMETHASONE] | Compound NOT metabolized
16 | CC(C)N(CCC(C(N)=O)(c1ccccc1)c1ccccn1)C(C)C.O=P(O)(O)O (stereo not given) [DISOPYRAMIDE PHOSPHATE] | Compound NOT metabolized

Assay: as §1, with “on Z-013” for “on Z-014”, “to rabbit” for “to rat”, “number: ERS12561813” for “number: ERS12561814”
Settings: 2 µM

Row | Structure (SMILES) | Bacterial Biotransformation
17 | C[C@@H]1C[C@H]2[C@@H]3CCC4=CC(=O)C=C[C@]4(C)[C@@]3(F)[C@@H](O)C[C@]2(C)[C@@]1(O)C(=O)CO [DEXAMETHASONE] | Compound NOT metabolized
18 | CC(C)N(CCC(C(N)=O)(c1ccccc1)c1ccccn1)C(C)C.O=P(O)(O)O (stereo not given) [DISOPYRAMIDE PHOSPHATE] | Compound NOT metabolized

Settings: human gut metagenome, 24 h, 2 µM
Remark: another data set of the same source

Row | Structure (SMILES) | Bacterial Biotransformation
19 | C[C@@H]1C[C@H]2[C@@H]3CCC4=CC(=O)C=C[C@]4(C)[C@@]3(F)[C@@H](O)C[C@]2(C)[C@@]1(O)C(=O)CO [DEXAMETHASONE] | Compound NOT metabolized
20 | CC(C)N(CCC(C(N)=O)(c1ccccc1)c1ccccn1)C(C)C.O=P(O)(O)O (stereo not given) [DISOPYRAMIDE PHOSPHATE] | Compound metabolized

Assay: as §1, with “on Z-016” for “on Z-014”, “to mouse” for “to rat”, “number: ERS12561815” for “number: ERS12561814”
Settings: 2 µM

Row | Structure (SMILES) | Bacterial Biotransformation
21 | C[C@@H]1C[C@H]2[C@@H]3CCC4=CC(=O)C=C[C@]4(C)[C@@]3(F)[C@@H](O)C[C@]2(C)[C@@]1(O)C(=O)CO [DEXAMETHASONE] | Compound NOT metabolized
22 | CC(C)N(CCC(C(N)=O)(c1ccccc1)c1ccccn1)C(C)C.O=P(O)(O)O (stereo not given) [DISOPYRAMIDE PHOSPHATE] | Compound NOT metabolized

Assay: as §1, with “on WLS-038” for “on Z-014”, “to human” for “to rat”, “number: ERS12561745” for “number: ERS12561814”
Settings: 2 µM

Row | Structure (SMILES) | Bacterial Biotransformation
23 | C[C@@H]1C[C@H]2[C@@H]3CCC4=CC(=O)C=C[C@]4(C)[C@@]3(F)[C@@H](O)C[C@]2(C)[C@@]1(O)C(=O)CO [DEXAMETHASONE] | Compound NOT metabolized
24 | CC(C)N(CCC(C(N)=O)(c1ccccc1)c1ccccn1)C(C)C.O=P(O)(O)O (stereo not given) [DISOPYRAMIDE PHOSPHATE] | Compound NOT metabolized

Assay: as §1, with “on WLS-007” for “on Z-014”, “to human” for “to rat”, “number: ERS12561742” for “number: ERS12561814”
Settings: 2 µM

Row | Structure (SMILES) | Bacterial Biotransformation
25 | C[C@@H]1C[C@H]2[C@@H]3CCC4=CC(=O)C=C[C@]4(C)[C@@]3(F)[C@@H](O)C[C@]2(C)[C@@]1(O)C(=O)CO [DEXAMETHASONE] | Compound NOT metabolized
26 | CC(C)N(CCC(C(N)=O)(c1ccccc1)c1ccccn1)C(C)C.O=P(O)(O)O (stereo not given) [DISOPYRAMIDE PHOSPHATE] | Compound metabolized

Assay: as §1, with “Z-019” for “Z-014”, “ERS12561818” for “ERS12561814”
Settings: 2 µM

Row | Structure (SMILES) | Bacterial Biotransformation
27 | C[C@@H]1C[C@H]2[C@@H]3CCC4=CC(=O)C=C[C@]4(C)[C@@]3(F)[C@@H](O)C[C@]2(C)[C@@]1(O)C(=O)CO [DEXAMETHASONE] | Compound NOT metabolized
28 | CC(C)N(CCC(C(N)=O)(c1ccccc1)c1ccccn1)C(C)C.O=P(O)(O)O (stereo not given) [DISOPYRAMIDE PHOSPHATE] | Compound NOT metabolized

Assay: as §1, with “on WLS-220” for “on Z-014”, “to human” for “to rat”, “number: ERS12561769” for “number: ERS12561814”
Settings: 2 µM

Row | Structure (SMILES) | Bacterial Biotransformation
29 | C[C@@H]1C[C@H]2[C@@H]3CCC4=CC(=O)C=C[C@]4(C)[C@@]3(F)[C@@H](O)C[C@]2(C)[C@@]1(O)C(=O)CO [DEXAMETHASONE] | Compound NOT metabolized
30 | CC(C)N(CCC(C(N)=O)(c1ccccc1)c1ccccn1)C(C)C.O=P(O)(O)O (stereo not given) [DISOPYRAMIDE PHOSPHATE] | Compound NOT metabolized

Settings: human gut metagenome, 24 h, 2 µM
Remark: another data set of the same source

Row | Structure (SMILES) | Bacterial Biotransformation
31 | C[C@@H]1C[C@H]2[C@@H]3CCC4=CC(=O)C=C[C@]4(C)[C@@]3(F)[C@@H](O)C[C@]2(C)[C@@]1(O)C(=O)CO [DEXAMETHASONE] | Compound NOT metabolized
32 | CC(C)N(CCC(C(N)=O)(c1ccccc1)c1ccccn1)C(C)C.O=P(O)(O)O (stereo not given) [DISOPYRAMIDE PHOSPHATE] | Compound NOT metabolized

Assay: as §1, with “on WLS-073” for “on Z-014”, “to human” for “to rat”, “number: ERS12561749” for “number: ERS12561814”
Settings: 2 µM

Row | Structure (SMILES) | Bacterial Biotransformation
33 | C[C@@H]1C[C@H]2[C@@H]3CCC4=CC(=O)C=C[C@]4(C)[C@@]3(F)[C@@H](O)C[C@]2(C)[C@@]1(O)C(=O)CO [DEXAMETHASONE] | Compound NOT metabolized
34 | CC(C)N(CCC(C(N)=O)(c1ccccc1)c1ccccn1)C(C)C.O=P(O)(O)O (stereo not given) [DISOPYRAMIDE PHOSPHATE] | Compound NOT metabolized

Assay: as §1, with “on WLS-086” for “on Z-014”, “to human” for “to rat”, “number: ERS12561752” for “number: ERS12561814”
Settings: 2 µM

Row | Structure (SMILES) | Bacterial Biotransformation
35 | C[C@@H]1C[C@H]2[C@@H]3CCC4=CC(=O)C=C[C@]4(C)[C@@]3(F)[C@@H](O)C[C@]2(C)[C@@]1(O)C(=O)CO [DEXAMETHASONE] | Compound metabolized
36 | CC(C)N(CCC(C(N)=O)(c1ccccc1)c1ccccn1)C(C)C.O=P(O)(O)O (stereo not given) [DISOPYRAMIDE PHOSPHATE] | Compound metabolized

Assay: as §1, with “on Z-017” for “on Z-014”, “to mouse” for “to rat”, “number: ERS12561816” for “number: ERS12561814”
Settings: 2 µM

Row | Structure (SMILES) | Bacterial Biotransformation
37 | C[C@@H]1C[C@H]2[C@@H]3CCC4=CC(=O)C=C[C@]4(C)[C@@]3(F)[C@@H](O)C[C@]2(C)[C@@]1(O)C(=O)CO [DEXAMETHASONE] | Compound NOT metabolized
38 | CC(C)N(CCC(C(N)=O)(c1ccccc1)c1ccccn1)C(C)C.O=P(O)(O)O (stereo not given) [DISOPYRAMIDE PHOSPHATE] | Compound NOT metabolized

Assay: as §1, with “on WLS-310” for “on Z-014”, “to human” for “to rat”, “number: ERS12561785” for “number: ERS12561814”
Settings: 2 µM

Row | Structure (SMILES) | Bacterial Biotransformation
39 | C[C@@H]1C[C@H]2[C@@H]3CCC4=CC(=O)C=C[C@]4(C)[C@@]3(F)[C@@H](O)C[C@]2(C)[C@@]1(O)C(=O)CO [DEXAMETHASONE] | Compound metabolized
40 | CC(C)N(CCC(C(N)=O)(c1ccccc1)c1ccccn1)C(C)C.O=P(O)(O)O (stereo not given) [DISOPYRAMIDE PHOSPHATE] | Compound metabolized
